pIC50: −log10 of the molar value. Values after ≈ are worked out from the molar mass of the structure shown. Where two headings read alike, the source gives them in different places.
How the values were obtained:
Vero cells = assay: Cytotoxicity test (MTT); type: cell-based; conditions: Chlorocebus sabaeus
[1] = tested on: Mycobacterium tuberculosis H37Rv; assay: Anti-tuberculosis activity test in vitro (Microplate Alamar Blue Assay, MABA); type: cell-based
[2] = tested on: mitochondrial protein synthesis; assay: Activity of inhibiting mitochondrial protein synthesis; type: biochemical; conditions: for IC50: mitochondrial protein synthesis inhibition, Table 3
Procedure: The experimental steps were carried out according to the literature (Antimicrobial Agents and Chemotherapy, 2006, 50 (6), 2042-2049).

[3] = Vero cells, MTT, 48 hours of incubation, highest concentration 64 μg/mL, read-out: IC50
[4] = M. tuberculosis H37Rv, MABA, 7H9 medium, method says MIC90 was calculated, read-out: MIC

NC[C@@H]1OC(=O)N2c3cc(F)c(N4CCSCC4)cc3OC[C@@H]12 [Compound 1, (3S,3aS)-3-(Aminomethyl)-8-fluoro-7-thiomorpholino-3a, 4-dihydro-1H,3H-benzo[b]ox azolo[3,4-d][1,4]oxazin-1-one]
IC50 (Vero cells; [3]): 36 µg/mL (≈ 106 µM) | melting point: 155 to 157 °C | MIC [1, 4]: 0.029 µg/mL (≈ 0.0854 µM) | IC50 [2]: 75.51 µg/mL

CC(=O)NC[C@@H]1OC(=O)N2c3cc(F)c(N4CCSCC4)cc3OC[C@@H]12 [Compound 4, N-(((3S,3aS)-8-Fluoro-1-oxo-7-thiomorpholino-3a,4-dihydro-1H,3H-benzo[b]oxazolo[3,4-d][1,4]oxazin-3-yl)methyl)acetamide]
IC50 (Vero cells; [3]): > 64 µg/mL | MIC [1, 4]: 0.044 µg/mL (≈ 0.115 µM) | IC50 [2]: 99.39 µg/mL

CC(C)C(=O)NC[C@@H]1OC(=O)N2c3cc(F)c(N4CCSCC4)cc3OC[C@@H]12 [Compound 5, N-(((3S,3aS)-8-Fluoro-1-oxo-7-thiomorpholino-3a,4-dihydro-1H,3H-benzo[b]oxazolo[3,4-d][1,4]oxazin-3-yl)methyl)isobutyramide]
IC50 (Vero cells; [3]): > 64 µg/mL | melting point: 193 to 195 °C | MIC [1, 4]: 0.095 µg/mL (≈ 0.232 µM) | IC50 [2]: >100 µg/mL

O=C(NC[C@@H]1OC(=O)N2c3cc(F)c(N4CCSCC4)cc3OC[C@@H]12)C1CC1 [Compound 6, N-(((3S,3aS)-8-Fluoro-1-oxo-7-thiomorpholino-3a,4-dihydro-1H,3H-benzo[b]oxazolo[3,4-d][1,4]oxazin-3-yl)methyl)cyclopropanecarboxamide]
IC50 (Vero cells; [3]): > 64 µg/mL | melting point: 209 to 211 °C | MIC [1, 4]: 0.034 µg/mL (≈ 0.0834 µM) | IC50 [2]: >100 µg/mL

O=C(NC[C@@H]1OC(=O)N2c3cc(F)c(N4CCSCC4)cc3OC[C@@H]12)C1CCC1 [Compound 7, N-(((3S,3aS)-8-Fluoro-1-oxo-7-thiomorpholino-3a,4-dihydro-1H,3H-benzo[b]oxazolo[3,4-d][1,4]oxazin-3-yl)methyl)cyclobutanecarboxamide]
IC50 (Vero cells; [3]): > 64 µg/mL | melting point: 176 to 178 °C | MIC [1, 4]: 0.03 µg/mL (≈ 0.0712 µM) | IC50 [2]: 53.69 µg/mL

COC(=O)NC[C@@H]1OC(=O)N2c3cc(F)c(N4CCSCC4)cc3OC[C@@H]12 [Compound 8, Methyl (((3S,3aS)-8-Fluoro-1-oxo-7-thiomorpholino-3a,4-dihydro-1H,3H-benzo[b]oxazolo[3,4-d][1,4]oxazin-3-yl)methyl)carbamate]
IC50 (Vero cells; [3]): > 64 µg/mL | melting point: 155 to 156 °C | MIC [1, 4]: 0.031 µg/mL (≈ 0.078 µM) | IC50 [2]: >100 µg/mL

O=C1O[C@@H](CNc2ccon2)[C@@H]2COc3cc(N4CCSCC4)c(F)cc3N12 [Compound 9, (3S,3aS)-8-Fluoro-3-((isoxazol-3-ylamino)methyl)-7-thiomorpholino-3a,4-dihydro-1H,3H-benzo[b]oxazolo[3,4-d][1,4]oxazin-1-one]
IC50 (Vero cells; [3]): > 64 µg/mL | melting point: 148 to 150 °C | MIC [1, 4]: 0.025 µg/mL (≈ 0.0615 µM) | IC50 [2]: >100 µg/mL

O=C(NC[C@@H]1OC(=O)N2c3cc(F)c(N4CCSCC4)cc3OC[C@@H]12)c1ccncc1 [Compound 10, N-(((3S,3aS)-8-Fluoro-1-oxo-7-thiomorpholino-3a,4-dihydro-1H,3H-benzo[b]oxazolo[3,4-d][1,4]oxazin-3-yl)methyl)isonicotinamide]
IC50 (Vero cells; [3]): > 64 µg/mL | melting point: 135 to 137 °C | MIC [1, 4]: 0.16 µg/mL (≈ 0.36 µM) | IC50 [2]: >100 µg/mL

O=C(NC[C@@H]1OC(=O)N2c3cc(F)c(N4CCSCC4)cc3OC[C@@H]12)c1cnccn1 [Compound 11, N-(((3S,3aS)-8-Fluoro-1-oxo-7-thiomorpholino-3a,4-dihydro-1H,3H-benzo[b]oxazolo[3,4-d][1,4]oxazin-3-yl)methyl)pyrazine-2-carboxamide]
IC50 (Vero cells; [3]): 40.7 µg/mL (≈ 91.3 µM) | melting point: 212 to 214 °C | MIC [1, 4]: 0.115 µg/mL (≈ 0.258 µM) | IC50 [2]: >100 µg/mL

O=C1O[C@@H](Cn2ccnn2)[C@@H]2COc3cc(N4CCSCC4)c(F)cc3N12 [Compound 12, (3S,3aS)-3-((1H-1,2,3-Triazol-1-yl)methyl)-8-fluoro-7-thiomorpholino-3a,4-dihydro-1H,3H-benzo[b]oxazolo[3,4-d][1,4]oxazin-1-one]
IC50 (Vero cells; [3]): > 64 µg/mL | melting point: 223 to 225 °C | MIC [1, 4]: 0.227 µg/mL (≈ 0.58 µM) | IC50 [2]: >100 µg/mL

NC[C@@H]1OC(=O)N2c3cc(F)c(N4[C@@H]5CC[C@H]4CSC5)cc3OC[C@@H]12 [Compound 13, (3S,3aS)-3-(Aminomethyl)-7-((1R,5S)-3-thia-8-azabicyclo[3.2.1]octan-8-yl)-8-fluoro-3a,4-dihydro-1H,3H-benzo[b]oxazolo[3,4-d][1,4]oxazin-1-one]
melting point: 168 to 169 °C | MIC ([1]; H37RV): 0.609 µg/mL (≈ 1.67 µM)

CC(=O)NC[C@@H]1OC(=O)N2c3cc(F)c(N4[C@@H]5CC[C@H]4CSC5)cc3OC[C@@H]12 [Compound 14, N-(((3S,3aS)-7-((1R,5S)-3-thia-8-azabicyclo[3.2.1]octan-8-yl)-8-fluoro-1-oxo-3a,4-dihydro-1H,3H-benzo[b]oxazolo[3,4-d][1,4]oxazin-3-yl)methyl)acetamide]
IC50 (Vero cells; Vero, 48 h): 58.5 µg/mL (≈ 144 µM) | melting point: 235 to 236 °C | MIC ([1]; H37RV): 0.918 µg/mL (≈ 2.25 µM)

O=C(NC[C@@H]1OC(=O)N2c3cc(F)c(N4[C@@H]5CC[C@H]4CSC5)cc3OC[C@@H]12)C1CC1 [Compound 16, N-(((3S,3aS)-7-((1R,5S)-3-thia-8-azabicyclo[3.2.1]octan-8-yl)-8-fluoro-1-oxo-3a,4-dihydro-1H,3H-benzo[b]oxazolo[3,4-d][1,4]oxazin-3-yl)methyl)cyclopropanecarboxamide]
IC50 (Vero cells; Vero, 48 h): > 64 µg/mL | melting point: 169 to 171 °C | MIC ([1]; H37RV): 0.976 µg/mL (≈ 2.25 µM)

O=C(NC[C@@H]1OC(=O)N2c3cc(F)c(N4[C@@H]5CC[C@H]4CSC5)cc3OC[C@@H]12)C1CCC1 [Compound 17, N-(((3S,3aS)-7-((1R,5S)-3-thia-8-azabicyclo[3.2.1]octan-8-yl)-8-fluoro-1-oxo-3a,4-dihydro-1H,3H-benzo[b]oxazolo[3,4-d][1,4]oxazin-3-yl)methyl)cyclobutanecarboxamide]
IC50 (Vero cells; Vero, 48 h): 34.7 µg/mL (≈ 77.5 µM) | melting point: 195 to 196 °C | MIC ([1]; H37RV): 0.974 µg/mL (≈ 2.18 µM)

O=C1O[C@@H](Cn2ccnn2)[C@@H]2COc3cc(N4CC5(COC5)C4)c(F)cc3N12 [Compound 27, (3S,3aS)-3-((1H-1,2,3-Triazol-1-yl)methyl)-8-fluoro-7-(2-oxa-6-azaspiro[3.3]heptan-6-y 1)-3a,4-dihydro-1H,3H-benzo[b]oxazolo[3,4-d][1,4]oxazin-1-one]
IC50 (Vero cells; [3]): > 64 µg/mL | melting point: 219 to 221 °C

CC(=O)NC[C@H]1OC(=O)N2c3cc(F)c(N4CCSCC4)cc3OC[C@H]12 [Compound 28, N-(((3R,3aR)-8-Fluoro-1-oxo-7-thiomorpholino-3a,4-dihydro-1H,3H-benzo[b]oxazolo[3,4-d][1,4]oxazin-3-yl)methyl)acetamide]
IC50 (Vero cells; [3]): > 64 µg/mL | MIC [1, 4]: 0.232 µg/mL (≈ 0.608 µM) | IC50 [2]: >100 µg/mL

COC(=O)NC[C@H]1OC(=O)N2c3cc(F)c(N4CCSCC4)cc3OC[C@H]12 [Compound 30, Methyl (((3R,3aR)-8-fluoro-1-oxo-7-thiomorpholino-3a,4-dihydro-1H,3H-benzo[b]oxazolo[3,4-d][l, 4]oxazin-3-yl)methyl)carbamate]
IC50 (Vero cells; [3]): > 64 µg/mL | melting point: 158 to 160 °C | MIC [1, 4]: 0.208 µg/mL (≈ 0.523 µM)

CC(=O)NC[C@@H]1OC(=O)N2c3cc(F)c(N4CCC(F)(F)CC4)cc3OC[C@@H]12 [Compound 32, N-(((3S,3aS)-7-(4,4-Difluoropiperidin-1-yl)-8-fluoro-1-oxo-3a,4-dihydro-1H,3H-benzo[b]oxazolo[3,4-d][1,4]oxazin-3-yl)methyl)acetamide]
IC50 (Vero cells; [3]): > 64 µg/mL | melting point: 230 to 232 °C | MIC [1, 4]: 0.908 µg/mL (≈ 2.27 µM)

O=C(NC[C@@H]1OC(=O)N2c3cc(F)c(N4CCSCC4)cc3OC[C@@H]12)C(F)F [Compound 33, 2,2-Difluoro-N-(((3S,3aS)-8-fluoro-1-oxo-7-thiomorpholino-3a,4-dihydro-1H,3H-benzo [b]oxazolo[3,4-d][1,4]oxazin-3-yl)methyl)acetamide]
IC50 (Vero cells; [3]): 61.6 µg/mL (≈ 148 µM) | melting point: 200 to 202 °C | MIC [1, 4]: 0.1 µg/mL (≈ 0.24 µM)

O=C(NC[C@@H]1OC(=O)N2c3cc(F)c(N4CC[S+]([O-])CC4)cc3OC[C@@H]12)C(F)F [Compound 34, 2,2-Difluoro-N-(((3S,3aS)-8-fluoro-7-(1-oxidothiomorpholino)-1-oxo-3a,4-dihydro-1H, 3H-benzo[b]oxazolo[3,4-d][1,4]oxazin-3-yl)methyl)acetamide]
IC50 (Vero cells; [3]): > 64 µg/mL | melting point: 190 to 192 °C | MIC [1, 4]: 0.492 µg/mL (≈ 1.14 µM)

CC(=O)NC[C@@H]1OC(=O)N2c3cc(F)c(N4CCS(=O)(=O)CC4)cc3OC[C@@H]12 [Compound 35, N-(((3S,3aS)-7-(1,1-dioxidothiomorpholino)-8-fluoro-1-oxo-3a,4-dihydro-1H,3H-benzo [b]oxazolo[3,4-d][1,4]oxazin-3-yl)methyl)acetamide]
IC50 (Vero cells; [3]): > 64 µg/mL | melting point: 226 to 228 °C | MIC [1, 4]: 0.48 µg/mL (≈ 1.16 µM)

O=C1O[C@@H](CNC2COC2)[C@@H]2COc3cc(N4CCSCC4)c(F)cc3N12 [Compound 36, (3S,3aS)-8-Fluoro-3-((oxetan-3-ylamino)methyl)-7-thiomorpholino-3a,4-dihydro-1H,3H-benzo[b]oxazolo[3,4-d][1,4]oxazin-1-one]
IC50 (Vero cells; [3]): > 64 µg/mL | melting point: 162 to 164 °C | MIC [1, 4]: 0.237 µg/mL (≈ 0.599 µM)

CC(=O)NC[C@@H]1OC(=O)N2c3ccc(N4CCOCC4)cc3OC[C@@H]12 [Compound VII, reference compound]
MIC [1, 4]: 1.55 µg/mL (≈ 4.45 µM) | IC50 [2]: 35.82 µg/mL | pIC50 ([2]; read-out: IC50 value of mitochondrial protein synthesis inhibition): 4.45

CC(=O)NC[C@H]1CN(c2ccc(N3CCOCC3)c(F)c2)C(=O)O1 [Linezolid, reference compound]
MIC [1, 4]: 0.294 µg/mL (≈ 0.871 µM) | IC50 [2]: 8.71 µg/mL

CC(=O)NC[C@H]1CN(c2ccc(N3CCSCC3)c(F)c2)C(=O)O1 [Sutezolid, reference compound]
MIC [1, 4]: 0.078 µg/mL (≈ 0.221 µM) | IC50 [2]: 7.98 µg/mL

Reference: patent US11332477B2, “Nitrogen containing heterocycle substituted benzoxazine oxazolidinone compound and preparation method and use thereof” (INSTITUTE OF MATERIA MEDICA, CHINESE ACADEMY OF MEDICAL …, priority 2017, dated 2022)
